Data on 17 molecules can be found in ChEMBL document CHEMBL3400045, “Synthesis and ABCG2 inhibitory evaluation of 5-N-acetylardeemin derivatives” (Bioorg Med Chem, 2015).

What all share (assay type): cell-based
Series [1] addresses T1, Broad substrate specificity ATP-binding cassette transporter ABCG2 (Homo sapiens, UniProt Q9UNQ0).
T1 sequence (Q9UNQ0 whole entry): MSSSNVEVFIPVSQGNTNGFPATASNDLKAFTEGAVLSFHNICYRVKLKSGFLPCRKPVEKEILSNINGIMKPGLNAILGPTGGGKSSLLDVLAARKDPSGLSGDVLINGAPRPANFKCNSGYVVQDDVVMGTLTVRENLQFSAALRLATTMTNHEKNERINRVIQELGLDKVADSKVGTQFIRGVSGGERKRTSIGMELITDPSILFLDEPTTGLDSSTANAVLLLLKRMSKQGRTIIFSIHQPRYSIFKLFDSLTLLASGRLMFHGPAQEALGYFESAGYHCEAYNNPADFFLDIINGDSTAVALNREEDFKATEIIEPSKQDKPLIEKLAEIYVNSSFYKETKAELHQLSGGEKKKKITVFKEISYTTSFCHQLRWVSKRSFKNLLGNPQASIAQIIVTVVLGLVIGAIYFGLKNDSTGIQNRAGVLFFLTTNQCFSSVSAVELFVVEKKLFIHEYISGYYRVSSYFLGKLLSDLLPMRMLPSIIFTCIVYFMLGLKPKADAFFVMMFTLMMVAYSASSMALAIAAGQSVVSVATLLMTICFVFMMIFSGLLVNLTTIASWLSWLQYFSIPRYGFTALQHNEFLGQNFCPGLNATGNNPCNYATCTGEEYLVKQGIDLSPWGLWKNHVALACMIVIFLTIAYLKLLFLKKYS
Nature of the series: (§1) Inhibition of ABCG2 (unknown origin) transfected in Flp-In-293 cells assessed as inhibition of Hoechst 33342 efflux after 90 mins by flow cytometry. To be noted: 1.5 h. A general note: In flow cytometry, cells or beads pass a laser one at a time.

Series [2] deals with T2, ABCG2 (Homo sapiens, UniProt Q9UNQ0).
T2 sequence (Q9UNQ0 whole entry): T1 sequence (Q9UNQ0 whole entry)
Described as §1. To be noted: Flp-In-293 cells transfected with ABCG2, probe Hoechst 33342.

Series [3] deals with T2, ABCG2. Put plainly: Inhibition of ABCG2 (unknown origin) transfected in Flp-In-293 cells assessed as inhibition of Hoechst 33342 efflux measured as inhibition ratio after 90 mins by flow cytometry. On the set-up: concentration or dose not given beside the values. The following applies: Flp-In-293 cells transfected with ABCG2, probe Hoechst 33342.

The structures appear in SMILES notation.

Take `C=CC(C)(C)[C@@]12C[C@H]3c4nc5ccc(OC)cc5c(=O)n4[C@H](C)C(=O)N3[C@@H]1N(C(C)=O)c1ccccc12`: in series [1], the “inhibition (INH)” value is given as “Active”.

For `C=CC(C)(C)[C@@]12C[C@H]3c4nc5ccc(-c6ccccc6)cc5c(=O)n4[C@H](C)C(=O)N3[C@@H]1N(C(C)=O)c1ccccc12`, the “inhibition (INH)” value in series [1] is recorded as “Active”.

In the case of `C=CC(C)(C)[C@]12C[C@@H](C(=O)Nc3ccccc3C(=O)OC)N(C(=O)[C@@H](C)NC(=O)OC(C)(C)C)[C@H]1N(C(C)=O)c1ccccc12`, the inhibition (in general, the share of the control response that was lost under treatment) at 1.5 h on ABCG2 [2] turned out to be 27.5%.

Regarding `C=CC(C)(C)[C@@]12C[C@H]3c4nc5ccccc5c(=O)n4[C@H](C)C(=O)N3[C@@H]1N(C(C)=O)c1ccccc12`, the inhibition at 1.5 h at ABCG2 [3] was 21.8%.

On to `C=CC(C)(C)[C@@]12C[C@H]3c4nc5ccc(I)cc5c(=O)n4[C@H](C)C(=O)N3[C@@H]1N(C(C)=O)c1ccccc12`, for which the inhibition at 1.5 h on ABCG2 [3] worked out at 35.4%. For the same molecule, the “inhibition (INH)” value in series [1] is “Active”.

In the case of `C=CC(C)(C)[C@@]12C[C@H]3c4nc5ccccc5c(=O)n4[C@H](C)C(=O)N3[C@@H]1N(C(C)=O)c1ccc(-c3ccccc3)cc12`, the “inhibition (INH)” value in series [1] is listed as “Active”.

Turning to `C=CC(C)(C)[C@@]12C[C@H]3c4nc5ccccc5c(=O)n4[C@H](C)C(=O)N3[C@@H]1N(C(C)=O)c1ccc(Br)cc12`, the “inhibition (INH)” value in series [1] was “Active”.

Consider `C=CC(C)(C)[C@@]12C[C@H]3c4nc5ccccc5c(=O)n4[C@H](C)C(=O)N3[C@@H]1N(C(C)=O)c1ccc(C3CCCCC3)cc12`, for which the “inhibition (INH)” value in series [1] was “Active”.

Consider `C=CC(C)(C)[C@@]12C[C@H]3c4nc5cc(Br)ccc5c(=O)n4[C@H](C)C(=O)N3[C@@H]1N(C(C)=O)c1ccccc12`, for which the “inhibition (INH)” value in series [1] was “Active”.

`C=CC(C)(C)[C@@]12C[C@H]3c4nc5ccccc5c(=O)n4[C@H](C)C(=O)N3[C@@H]1N(C(C)=O)c1ccc(-c3ccc(-c4ccccc4)cc3)cc12`: the “inhibition (INH)” value in series [1] is given as “Active”.

Turning to `C=CC(C)(C)[C@@]12C[C@H]3c4nc5ccccc5c(=O)n4[C@H](C)C(=O)N3[C@@H]1N(C(C)=O)c1ccc(-c3ccc(OC)cc3)cc12`, the “inhibition (INH)” value in series [1] is recorded as “Active”.

On to `C=CC(C)(C)[C@@]12C[C@H]3c4nc5ccc(C#N)cc5c(=O)n4[C@H](C)C(=O)N3[C@@H]1N(C(C)=O)c1ccccc12`, for which the “inhibition (INH)” value in series [1] was “Active”.

As for `C=CC(C)(C)[C@@]12C[C@H]3c4nc5ccc(Cl)cc5c(=O)n4[C@H](C)C(=O)N3[C@@H]1N(C(C)=O)c1ccccc12`, the inhibition at 1.5 h on ABCG2 [3] was determined as 66.8%. Moreover, in series [1], the “inhibition (INH)” value is listed as “Active”.

On to `C=CC(C)(C)[C@@]12C[C@H]3c4nc5ccc(Br)cc5c(=O)n4[C@H](C)C(=O)N3[C@@H]1N(C(C)=O)c1ccccc12`, for which, at ABCG2 [3], the inhibition at 1.5 h worked out at 64.5%. Further, in series [1], the “inhibition (INH)” value was “Active”.

As to `C=CC(C)(C)[C@@]12C[C@H]3c4nc5ccccc5c(=O)n4[C@H](C)C(=O)N3[C@@H]1N(C(C)=O)c1ccc(-c3ccc(C#N)cc3)cc12`, the “inhibition (INH)” value in series [1] is “Active”.

As to `C=CC(C)(C)[C@@]12C[C@H]3c4nc5ccccc5c(=O)n4[C@H](C)C(=O)N3[C@@H]1N(C(C)=O)c1ccc(-c3ccc(C)cc3)cc12`, the “inhibition (INH)” value in series [1] is on record as “Active”.

Consider `C=CC(C)(C)[C@@]12C[C@H]3c4nc5ccc(F)cc5c(=O)n4[C@H](C)C(=O)N3[C@@H]1N(C(C)=O)c1ccccc12`, for which, at ABCG2 [3], the inhibition at 1.5 h is 34.6%. For the same molecule, in series [1], the “inhibition (INH)” value is “Active”.
